# Laboratory results published in patent US20090291953A1, “PHAR[…] OF REBOXETINE” (Pfizer Inc, priority 2002, published 2009).
# Key:
# Assay type in all cases: physicochemical
# [1] = Hygroscopicity test by Dynamic Moisture Sorption Gravimetry (DVS 1000); conditions: for Effects of moisture update: reversibility / retention of water uptake: DVS sorption/desorption, dependent on relative environmental humidity; for Water uptake %: 25° C.
# Text: The water uptake of succinate and fumarate salts of S,S-reboxetine was investigated by submitting a sample of such salts to a hygroscopicity test by means of a DVS 1000 (SMS) according to the principle of Dynamic Moisture Sorption Gravimetry (DMSG). The apparatus is a “controlled atmosphere microbalance” where the weighed sample is exposed to programmed variations of the relative humidity (RH) at a constant and controlled temperature. The measured parameters (weight, time and RH), reported in Excel worksheets, allowed obtaining hygroscopicity curves over the tested RH range. Multiple sorption/desorption cycles between 0% and 90% RH were performed at 25° C. Progressive variations of RH were of 10%; they were operated by the software at the equilibration of the sample weight. This condition was defined at a constant rate of percent weight variation 0.005%/min (average of 5 minutes survey). The experimental results were reported in the DVS Isotherm Reports and Isotherm Plots.
# The obtained results are summarized in the Table V, reporting the water uptake expressed as percent change in mass, and FIG. 4.
# [2] = DSC analyses on samples recovered after DVS tests; conditions: for DSC profile after equilibration at high humidity (DVS test method): maximum relative humidity of 90% at 25° C., equilibration up to 0.005%/min or no more than 360 minutes; for Modification of solid structure after DVS test (observed by DSC): tested sample after DVS sorption/desorption
# Protocol: DSC analyses were carried out with a Perkin-Elmer DSC-7 apparatus. Aluminium DSC pans were loaded with about of 2 mg of sample. The temperature range of analysis was between 30° and 210° C. The samples were analyzed under nitrogen flow (to eliminate oxidative and pyrrolitic effects) at a heating rate of 10° C./min.
# DSC analyses were executed as reported above also on the samples recovered after DVS tests, executed according to the DMSG principle. As shown below in FIG. 5, DSC profiles of SS-reboxetine succinate and fumarate salts were unchanged after equilibration at high humidity according to the DVS test method (maximum relative humidity of 90% at 25° C. and equilibration up to 0.005%/min or no more than 360 minutes).
# [3] = Thermogravimetric Analysis (TGA), volatile content
# Protocol: The volatile content measured by means of Thermogravimetric Analysis (TGA) was relevant: in fact, a weight loss of about 2% was detected upon heating showing a related thermal feature. Whereas for SS-reboxetine fumarate and succinate salts a negligible […] weight loss was measured.
# [4] = listed as S,S-reboxetine mesylate
smiles,measurement,setting,value
"CCOc1ccccc1O[C@@H](c1ccccc1)[C@@H]1CNCCO1.O=C(O)/C=C/C(=O)O (single isomer, unassigned) [Fumarate salt, Reboxetine S,S Enantiomer Fumarate Salt]",Effects of moisture update: reversibility / retention of water uptake,[1]; Fumarate Salt,Reversible water
same,Effects of moisture update: reversibility / retention of water uptake,"[1]; listed as fumarate salt, Fumarate Salt",reversible
same,Water uptake %,[1]; Relative Humidity 20%,0.06%
same,Water uptake %,[1]; Relative Humidity 35%,0.11%
same,Water uptake %,[1]; Relative Humidity 50%,0.16%
same,Water uptake %,[1]; Relative Humidity 65%,0.21%
same,Water uptake %,[1]; Relative Humidity 80%,0.31%
same,Water uptake %,[1]; Relative Humidity 90%,0.47%
same,DSC profile after equilibration at high humidity (DVS test method),[2],unchanged
same,"Weight loss upon heating (TGA), in words",[3],negligible
"CCOc1ccccc1O[C@@H](c1ccccc1)[C@@H]1CNCCO1.O=C(O)CCC(=O)O (single isomer, unassigned) [Succinate salt, Reboxetine S,S Enantiomer Succinate Salt]",Effects of moisture update: reversibility / retention of water uptake,[1]; Succinate Salt,Reversible water
same,Effects of moisture update: reversibility / retention of water uptake,"[1]; listed as succinate salt, Succinate Salt",reversible
same,Water uptake %,[1]; Relative Humidity 20%,0.03%
same,Water uptake %,[1]; Relative Humidity 35%,0.06%
same,Water uptake %,[1]; Relative Humidity 50%,0.10%
same,Water uptake %,[1]; Relative Humidity 65%,0.14%
same,Water uptake %,[1]; Relative Humidity 80%,0.21%
same,Water uptake %,[1]; Relative Humidity 90%,0.29%
same,DSC profile after equilibration at high humidity (DVS test method),[2],unchanged
same,"Weight loss upon heating (TGA), in words",[3],negligible
"CCOc1ccccc1O[C@H](c1ccccc1)[C@H]1CNCCO1.CS(=O)(=O)O [Mesylate salt, S,S-reboxetine mesylate]",Effects of moisture update: reversibility / retention of water uptake,[1],Retention of water
same,Effects of moisture update: reversibility / retention of water uptake,[1]; [4],only partially eliminated
same,Water uptake retained after re-equilibration,"[1]; DVS, after re-equilibration",about 4%
same,Amount of water adsorbed (uptake) in hygroscopicity test,"[1]; DVS, at 90% RH printed for mesylate salt",up to 9%
same,Desorption Cycle Water content % (percent change in mass),[1]; Relative Humidity 0%,4.3%
same,Sorption Cycle Water content % (percent change in mass),[1]; Relative Humidity 0%,0.0%
same,Desorption Cycle Water content % (percent change in mass),[1]; Relative Humidity 20%,4.5%
same,Sorption Cycle Water content % (percent change in mass),[1]; Relative Humidity 20%,0.5%
same,Desorption Cycle Water content % (percent change in mass),[1]; Relative Humidity 35%,4.6%
same,Sorption Cycle Water content % (percent change in mass),[1]; Relative Humidity 35%,0.6%
same,Desorption Cycle Water content % (percent change in mass),[1]; Relative Humidity 50%,4.6%
same,Sorption Cycle Water content % (percent change in mass),[1]; Relative Humidity 50%,0.7%
same,Desorption Cycle Water content % (percent change in mass),[1]; Relative Humidity 65%,4.6%
same,Sorption Cycle Water content % (percent change in mass),[1]; Relative Humidity 65%,0.9%
same,Desorption Cycle Water content % (percent change in mass),[1]; Relative Humidity 80%,4.7%
same,Sorption Cycle Water content % (percent change in mass),[1]; Relative Humidity 80%,4.5%
same,Desorption Cycle Water content % (percent change in mass),[1]; Relative Humidity 90%,8.7%
same,Sorption Cycle Water content % (percent change in mass),[1]; Relative Humidity 90%,8.7%
same,Effects of moisture update: change in crystalline form,[1]; after water uptake in DVS test,Irreversible change
same,DSC profile after equilibration at high humidity (DVS test method),[2],complete destructuration
same,Modification of solid structure after DVS test (observed by DSC),[2]; [4],solid state modification was observed
same,Modification of solid structure after DVS test (observed by DSC),[2]; listed as mesylate salt,loss of crystallinity
same,"Weight loss upon heating (volatile content, TGA)",[3],about 2%
